Experimental data from ChEMBL document CHEMBL1201862, “PubChem BioAssay data set” (2004).
Calls of active or inactive are those of the source.

Columns and labels:
[1] = A Cell Based Secondary Assay To Explore Cytotoxicity of Compounds that Sensitize Mycobacterium Tuberculosis to Beta-Lactam Antibiotics.; type: functional
[2] = target: T1, Sentrin-specific protease 6 (Homo sapiens, UniProt Q9GZR1); type: functional;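 note: Luminescence-based dose-response confirmatory assay of SENP6 inhibition, following up an ultra-high-throughput screen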
T1 sequence (Q9GZR1 whole entry): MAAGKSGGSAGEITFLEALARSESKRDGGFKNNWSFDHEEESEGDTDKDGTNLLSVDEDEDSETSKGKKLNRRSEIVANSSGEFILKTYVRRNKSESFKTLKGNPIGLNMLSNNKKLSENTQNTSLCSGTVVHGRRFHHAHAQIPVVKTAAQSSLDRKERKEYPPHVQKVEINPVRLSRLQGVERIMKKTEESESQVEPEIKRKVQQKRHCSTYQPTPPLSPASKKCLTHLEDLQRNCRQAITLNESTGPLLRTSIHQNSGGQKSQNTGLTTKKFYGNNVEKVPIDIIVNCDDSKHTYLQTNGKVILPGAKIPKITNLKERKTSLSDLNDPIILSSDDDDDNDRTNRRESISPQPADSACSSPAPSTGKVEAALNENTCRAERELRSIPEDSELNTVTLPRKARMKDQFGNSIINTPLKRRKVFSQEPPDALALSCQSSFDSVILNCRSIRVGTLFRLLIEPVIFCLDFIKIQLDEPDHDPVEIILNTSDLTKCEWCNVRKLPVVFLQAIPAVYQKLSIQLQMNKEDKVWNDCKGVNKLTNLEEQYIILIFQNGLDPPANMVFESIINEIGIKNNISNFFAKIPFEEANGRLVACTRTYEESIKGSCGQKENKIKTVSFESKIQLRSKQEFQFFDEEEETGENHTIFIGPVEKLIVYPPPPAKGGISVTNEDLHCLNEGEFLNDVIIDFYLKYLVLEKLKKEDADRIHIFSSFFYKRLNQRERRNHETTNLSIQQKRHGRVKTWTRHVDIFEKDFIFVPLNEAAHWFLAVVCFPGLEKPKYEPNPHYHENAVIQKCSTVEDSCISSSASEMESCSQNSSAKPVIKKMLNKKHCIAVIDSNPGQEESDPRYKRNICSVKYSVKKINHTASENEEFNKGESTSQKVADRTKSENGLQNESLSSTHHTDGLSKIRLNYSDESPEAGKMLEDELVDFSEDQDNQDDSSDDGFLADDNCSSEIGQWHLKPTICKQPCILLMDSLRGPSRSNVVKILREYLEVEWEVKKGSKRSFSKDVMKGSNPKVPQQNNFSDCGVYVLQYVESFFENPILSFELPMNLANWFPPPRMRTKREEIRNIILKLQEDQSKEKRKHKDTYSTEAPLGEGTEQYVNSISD

[3] = target: T2, Sentrin-specific protease 8 (Homo sapiens, UniProt Q96LD8); type: functional;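 note: luminescence read-out of SENP8 inhibition, dose-response confirmation following an ultra-high-throughput screen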
T2 sequence (Q96LD8 whole entry): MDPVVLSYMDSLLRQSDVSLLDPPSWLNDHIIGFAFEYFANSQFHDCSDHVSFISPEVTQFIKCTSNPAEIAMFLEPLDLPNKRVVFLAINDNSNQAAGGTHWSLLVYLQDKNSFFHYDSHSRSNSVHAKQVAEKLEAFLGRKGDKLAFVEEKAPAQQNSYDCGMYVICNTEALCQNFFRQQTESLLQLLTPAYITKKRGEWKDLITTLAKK

Caspase-3 = target: T3, Caspase-3 (Homo sapiens, UniProt P42574); type: functional;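 note: Dose-response selectivity test against caspase-3 for candidate inhibitors of sentrin-specific proteases (SENPs)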
T3 sequence (P42574 whole entry): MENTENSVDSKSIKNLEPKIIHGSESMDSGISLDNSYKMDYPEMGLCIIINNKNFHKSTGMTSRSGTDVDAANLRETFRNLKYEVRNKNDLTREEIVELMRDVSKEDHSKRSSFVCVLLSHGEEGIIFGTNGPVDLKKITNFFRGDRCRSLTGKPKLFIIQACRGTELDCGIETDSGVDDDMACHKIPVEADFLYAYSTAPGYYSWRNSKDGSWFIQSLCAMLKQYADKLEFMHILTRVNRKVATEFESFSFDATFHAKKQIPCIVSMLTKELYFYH

[4] = target: T4, Sentrin-specific protease 7 (Homo sapiens, UniProt Q9BQF6); type: functional;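 note: Luminescence-based dose-response confirmation of ultra-high-throughput screening hits, measuring inhibition of SENP7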
T4 sequence (Q9BQF6 whole entry): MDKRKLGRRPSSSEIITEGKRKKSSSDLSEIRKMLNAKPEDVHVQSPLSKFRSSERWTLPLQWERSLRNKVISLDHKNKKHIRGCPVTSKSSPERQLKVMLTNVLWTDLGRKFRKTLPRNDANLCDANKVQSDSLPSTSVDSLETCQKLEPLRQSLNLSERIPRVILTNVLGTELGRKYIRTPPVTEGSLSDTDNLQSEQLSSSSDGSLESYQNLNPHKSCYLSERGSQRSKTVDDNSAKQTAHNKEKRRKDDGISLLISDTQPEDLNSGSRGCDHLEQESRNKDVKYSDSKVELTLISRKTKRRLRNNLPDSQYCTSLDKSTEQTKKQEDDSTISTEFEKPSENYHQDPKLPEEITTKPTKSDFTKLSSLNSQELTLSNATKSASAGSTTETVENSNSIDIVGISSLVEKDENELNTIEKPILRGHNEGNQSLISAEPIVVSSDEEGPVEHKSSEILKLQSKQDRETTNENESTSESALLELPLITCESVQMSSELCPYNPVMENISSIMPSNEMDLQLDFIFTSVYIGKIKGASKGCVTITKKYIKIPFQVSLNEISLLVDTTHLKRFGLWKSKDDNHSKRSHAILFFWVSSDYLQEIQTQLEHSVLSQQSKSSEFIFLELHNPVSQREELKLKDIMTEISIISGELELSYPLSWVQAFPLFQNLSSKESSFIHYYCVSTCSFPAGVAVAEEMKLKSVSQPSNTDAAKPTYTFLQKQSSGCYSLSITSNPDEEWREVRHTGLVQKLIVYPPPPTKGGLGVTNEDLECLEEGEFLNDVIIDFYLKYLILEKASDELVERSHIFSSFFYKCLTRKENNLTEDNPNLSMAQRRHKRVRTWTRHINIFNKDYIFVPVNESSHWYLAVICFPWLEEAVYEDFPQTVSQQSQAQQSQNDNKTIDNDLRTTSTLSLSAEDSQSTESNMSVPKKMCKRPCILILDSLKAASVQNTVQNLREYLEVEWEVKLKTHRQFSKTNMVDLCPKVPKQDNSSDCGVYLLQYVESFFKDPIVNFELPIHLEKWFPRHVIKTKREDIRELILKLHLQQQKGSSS

[5] = target: Eukaryotic translation initiation factor 4E (Mus musculus, UniProt P63073); test: eIF4E–eIF4G protein interaction inhibitors, dose response, biochemical, TR-FRET (AID 855); type: functional;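 note: potency for disrupting eIF4E binding to eIF4GI seen as loss of FRET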
Sequence of Eukaryotic translation initiation factor 4E (P63073 whole entry): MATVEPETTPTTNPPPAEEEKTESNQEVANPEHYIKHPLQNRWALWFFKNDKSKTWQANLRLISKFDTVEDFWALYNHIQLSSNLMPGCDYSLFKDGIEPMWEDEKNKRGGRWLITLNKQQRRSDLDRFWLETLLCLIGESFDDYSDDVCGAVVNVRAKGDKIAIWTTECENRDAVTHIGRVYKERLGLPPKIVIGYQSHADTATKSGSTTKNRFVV

[6] = cytotoxicity in HEK-293T cells, dose response, cytotoxicity control for TCR NF-kB inhibitor project, luminescence, T-cell screen hits (AID 489026); type: functional, cell-based;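 note: cells exposed to compound about 14 hours before the viability readout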
[7] = target: T5, Carboxy-terminal domain RNA polymerase II polypeptide A small phosphatase 1 (Homo sapiens, UniProt Q9GZU7); test: inhibitors of CTDSP1, concentration-response testing, biochemical assay, absorbance-based, actives from ultra-high-throughput screening (AID 540297); type: functional
T5 sequence (Q9GZU7 whole entry): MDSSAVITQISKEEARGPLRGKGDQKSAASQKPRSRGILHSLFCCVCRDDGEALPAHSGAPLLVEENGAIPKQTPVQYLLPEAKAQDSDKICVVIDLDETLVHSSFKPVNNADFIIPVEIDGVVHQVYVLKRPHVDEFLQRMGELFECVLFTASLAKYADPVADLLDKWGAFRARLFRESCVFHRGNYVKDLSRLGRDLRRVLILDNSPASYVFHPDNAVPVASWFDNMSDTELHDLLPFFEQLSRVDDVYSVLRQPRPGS

[8] = growth suppression of beta-catenin-knockout colon cells, dose response, cell-based, HCT116, human colon tumor (AID 1045); type: functional;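 note: HCT116 colon tumor cells with beta catenin knocked out; cells exposed to compound for 60 hours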
[9] = growth suppression of PTEN-null colon cells, dose response, cell-based, HCT116 PTEN knockout (AID 1047); type: functional;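 note: HCT116 colon tumor cells with PTEN knocked out; cells exposed to compound for 60 hours before readout; potency for loss of cell viability measured by luminescence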

Row | Structure (SMILES) | IC50 [2] | IC50 [3] | IC50 (Caspase-3) | IC50 [4] | IC50 [5] | also measured
1 | CC1CCCN(S(=O)(=O)c2ccc(C(=O)Nc3nnc(-c4ccncc4)o3)cc2)C1 (stereo unspecified) |  |  |  |  |  | CC50 [1]: 12.7 µM (active)
2 | O=C(O)C(Oc1ccc2cc(-c3ccc(Cl)cc3)c(=O)oc2c1)c1ccccc1 (stereo unspecified) | 31.3 µM (active) | 31.8 µM (active) | 38.3 µM (active) | 28.7 µM (active) |  | 
3 | COc1ccc([C@H]2[C@H](C(C)=O)N3N=Cc4ccccc4C3C23C(=O)OC(C)(C)OC3=O)cc1 (stereo partly specified) |  |  |  |  | > 64 µM (inactive) | 
4 | Cc1ccc(C(=O)c2cc3ccccc3o2)cc1C | 6.41 µM (active) | 10.6 µM (active) | 11.2 µM (active) | 3.18 µM (active) |  | 
5 | COc1cc(C(=O)Nc2ccc3c(c2)CCN3C(C)=O)cc(OC)c1OC |  |  |  |  |  | IC50 [6]: > 80 µM (inactive)
6 | O=C(Cc1cccs1)Nc1ccc(S(=O)(=O)N2CCCC2)cc1 |  |  |  |  | 50 µM (inactive) | IC50 [7]: 5.04 µM (active)
7 | O=C(Nc1ccc2ncccc2c1)c1cccc(Br)c1 | 29.1 µM (active) | 28.7 µM (active) | 32.1 µM (active) | 8.67 µM (active) |  | 
8 | Cc1ccc(OCc2nnc(-c3ccccn3)[nH]2)cc1 |  |  |  |  | > 64 µM (inactive) | 
9 | COCc1nnc(NC(=O)c2ccc(S(=O)(=O)N(C)c3ccccc3)cc2)o1 |  |  |  |  |  | EC50 [8]: 18.3 µM (active); EC50 [9]: 20.6 µM (active); CC50 [1]: 18.6 µM (active)
